Data published in patent US10689383B2, “Optionally fused heterocyclyl-substituted derivatives of pyrimidine useful for the treatment of inflammatory, metabolic, oncologic and autoimmune diseases” (NUEVOLUTION A/S, priority 2014, dated 2020).

Experiments:
[1] = target: T1, yeast Gal4-DNA binding domain fused to the ligand binding domain of human RORγ (Homo sapiens, UniProt P51449); experiment: RORγ Reporter Assay (Gal4); assay type: cell-based; details: values given as lower bounds of ranges; for Gal4 activity range @ 1 μM (% inhibition): RORγ Reporter Assay (Gal4) at 1 μM; for Gal4 activity range @ 0.1 μM (% inhibition): RORγ Reporter Assay (Gal4) at 0.1 μM
T1 construct: host or cells: HEK293t
T1 sequence (P51449 269-508 limits assumed): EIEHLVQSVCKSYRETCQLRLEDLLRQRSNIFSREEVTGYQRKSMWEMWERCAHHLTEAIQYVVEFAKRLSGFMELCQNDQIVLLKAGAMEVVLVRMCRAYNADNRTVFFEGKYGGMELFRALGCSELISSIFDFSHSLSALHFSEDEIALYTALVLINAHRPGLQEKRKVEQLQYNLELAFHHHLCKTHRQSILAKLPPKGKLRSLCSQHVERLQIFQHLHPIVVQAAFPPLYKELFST
Summary of the method: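 Compound at final 1,000 or 100 nM (0.1% DMSO, triplicate) was added to the transfected HEK293t cells carrying a Gal4-UAS luciferase reporter for 24 h at 37 °C, 10% charcoal-stripped FBS. Activity reduction expressed as percent of vehicle-only luciferase signal.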

[2] = target: T2, human RORγt (Ligand Binding Domain) (Homo sapiens, UniProt P51449); experiment: Fluorescence Polarization (FP) Assay; details: Fluorescence Polarization (FP) Assay; values given as upper bounds of activity ranges; read-out: FP activity range
T2 construct: purchased Crelux (Planegg, Germany) batch no PC5032-1
T2 sequence (P51449 269-508 limits assumed): T1 sequence (P51449 269-508 limits assumed)
Summary of the method: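 Binding to the ligand pocket followed by fluorescence polarization with a TAMRA-tagged RORγt ligand probe of 910 g/mole. Negative control wells received DMSO only.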

Row | Structure (SMILES) | Gal4 activity range @ 1 μM (% inhibition) [1] [% inhibition] | IC50 [2] [nM] | Gal4 activity range @ 0.1 μM (% inhibition) [1] [% inhibition]
1 | Cc1ccc(CNc2ncnc(N3CCCC3c3ccc(C(F)(F)F)cc3)c2F)o1 (centres unmarked) [Example 107, 5-fluoro-N-[(5-methyl-2-furyl)methyl]-6-[2-[4-(trifluoromethyl)phenyl]pyrrolidin-1-yl]pyrimidin-4-amine] | >0 | < 10000 | –
2 | CS(=O)(=O)N[C@H]1CC[C@H](CNc2ncnc(N3CCOC[C@@H]3c3ccc(OC(F)(F)F)cc3)c2F)CC1 [Example 267, N-[4-[[[5-fluoro-6-[(3S)-3-[4-(trifluoromethoxy)phenyl]morpholin-4-yl]pyrimidin-4-yl]amino]methyl]cyclohexyl] methanesulfonamide] | >80 | < 500 | >80
3 | COc1ccc(C2CCCN2c2ncnc(NCc3ccc(C)nc3)c2F)cc1 (centres unmarked) [Example 90, 5-fluoro-6-[2-(4-methoxyphenyl)pyrrolidin-1-yl]-N-[(6-methyl-3-pyridyl)methyl]pyrimidin-4-amine] | >20 | < 1000 | >0
4 | NC(=O)Cc1ccc(Cn2ccc3c(N4CCOC[C@@H]4c4ccc(C(F)(F)F)nc4)ncnc32)cc1 [Example 326, 2-[4-[[4-[(3S)-3-[6-(trifluoromethyl)-3-pyridyl]morpholin-4-yl]pyrrolo[2,3-d]pyrimidin-7-yl]methyl]phenyl]acetamide] | >80 | < 500 | >50
5 | COc1cccc(C2CCCN2c2ncnc(NCc3ccc(CC(N)=O)cc3)c2F)c1 (centres unmarked) [Example 304, 2-[4-[[[5-fluoro-6-[2-(3-methoxyphenyl)pyrrolidin-1-yl]pyrimidin-4-yl]amino]methyl]phenyl]acetamide] | >80 | < 500 | >20
6 | NC(=O)[C@@H](CC1CCOCC1)Nc1ncnc(N2CCCC2c2ccc(C(F)(F)F)cc2)c1F (stereo partly drawn) [Example 52, (2R)-2-[[5-fluoro-6-[2-[4-(trifluoromethyl)phenyl]pyrrolidin-1-yl]pyrimidin-4-yl]amino]-3-tetrahydropyran-4-yl-propanamide] | >80 | < 2000 | –
7 | NC(=O)Cc1ccc(Cn2ccc3c(N4CCOCC4c4ccccc4)ncnc32)cc1 (centres unmarked) [Example 284, 2-[4-[[4-(3-phenylmorpholin-4-yl)pyrrolo[2,3-d]pyrimidin-7-yl]methyl]phenyl]acetamide] | >50 | < 500 | >20
8 | O=C(O)Cc1ccc(CNc2ncnc(N3CCC[C@H]3c3ccc(C(F)(F)F)cc3)c2F)cc1 [Example 118, 2-[4-[[[5-fluoro-6-[(2S)-2-[4-(trifluoromethyl)phenyl]pyrrolidin-1-yl]pyrimidin-4-yl]amino]methyl]phenyl]acetic acid] | >20 | < 10000 | >0
9 | NC(=O)Cc1ccc(CNc2ncnc(N3CCOCC3c3ccccc3)c2F)s1 (centres unmarked) [Example 283, 2-[5-[[[5-fluoro-6-(3-phenylmorpholin-4-yl)pyrimidin-4-yl]amino]methyl]-2-thienyl]acetamide] | >20 | < 1000 | >0
10 | OC1CCCCC1CNc1ncnc(N2CCC[C@@H]2c2ccc(C(F)(F)F)cc2)c1F (stereo partly drawn) [Example 200, 2-[[[5-fluoro-6-[(2R)-2-[4-(trifluoromethyl)phenyl]pyrrolidin-1-yl]pyrimidin-4-yl]amino]methyl]cyclohexanol] | >80 | < 1000 | >20
11 | COc1ccc(CNc2ncnc(N3CCCC3c3ccc(C(F)(F)F)cc3)c2F)cc1OC (centres unmarked) [Example 53, N-[(3,4-dimethoxyphenyl)methyl]-5-fluoro-6-[2-[4-(trifluoromethyl)phenyl]pyrrolidin-1-yl]pyrimidin-4-amine] | >20 | < 1000 | –
12 | Fc1c(NCC2CCOCC2)ncnc1N1CCOC[C@@H]1c1ccc(C(F)(F)F)cc1 [Example 247, 5-fluoro-N-(tetrahydropyran-4-ylmethyl)-6-[(3S)-3-[4-(trifluoromethyl)phenyl]morpholin-4-yl]pyrimidin-4-amine] | >80 | < 10000 | >20
13 | Fc1c(NCc2ccc(C(F)(F)F)nc2)ncnc1N1CCCC1c1ccc(C(F)(F)F)cc1 (centres unmarked) [Example 126, 5-fluoro-6-[2-[4-(trifluoromethyl)phenyl]pyrrolidin-1-yl]-N-[[6-(trifluoromethyl)-3-pyridyl]methyl]pyrimidin-4-amine] | >50 | < 2000 | >20
14 | O=C(O)CC1CCC(CNc2ncnc(N3CCOC[C@@H]3c3ccc(C(F)(F)F)cc3)c2F)CC1 (stereo partly drawn) [Example 205, 2-[4-[[[5-fluoro-6-[(3S)-3-[4-(trifluoromethyl)phenyl]morpholin-4-yl]pyrimidin-4-yl]amino]methyl]cyclohexyl]acetic acid] | >80 | < 500 | >50
15 | O=S1(=O)CCC(O)(CNc2ncnc(N3CCOC[C@@H]3c3ccc(C(F)(F)F)cc3)c2F)CC1 [Example 234, 4-[[[5-fluoro-6-[(3S)-3-[4-(trifluoromethyl)phenyl]morpholin-4-yl]pyrimidin-4-yl]amino]methyl]-1,1-dioxo-thian-4-ol] | >50 | < 1000 | >0
16 | O=S(=O)(NC1CC1)c1ccc(CNc2ncnc(N3CCC[C@@H]3c3ccc(C(F)(F)F)cc3)c2F)cc1 [Example 224, N-cyclopropyl-4-[[[5-fluoro-6-[(2R)-2-[4-(trifluoromethyl)phenyl]pyrrolidin-1-yl]pyrimidin-4-yl]amino]methyl]benzenesulfonamide] | >80 | < 500 | >80
17 | O=C(O)CC1CCC(CNc2ncnc(N3CCCC3c3ccc(C(F)(F)F)cc3)c2F)CC1 (centres unmarked) [Example 148, 2-[4-[[[5-fluoro-6-[2-[4-(trifluoromethyl)phenyl]pyrrolidin-1-yl]pyrimidin-4-yl]amino]methyl]cyclohexyl]acetic acid] | – | < 1000 | >50
18 | CNC(=O)[C@@H](CC(C)(C)C)N(C)c1ncnc(N2CCCC2c2ccc(C(F)(F)F)cc2)c1F (stereo partly drawn) [Example 31, (2R)-2-[[5-fluoro-6-[2-[4-(trifluoromethyl)phenyl]pyrrolidin-1-yl]pyrimidin-4-yl]-methyl-amino]-N,4,4-trimethyl-pentanamide] | >0 | < 10000 | –
19 | CC1(CNc2ncnc(N3CCOC[C@@H]3c3ccc(C(F)(F)F)cc3)c2F)COC1 [Example 235, 5-fluoro-N-[(3-methyloxetan-3-yl)methyl]-6-[(3S)-3-[4-(trifluoromethyl)phenyl]morpholin-4-yl]pyrimidin-4-amine] | >50 | < 2000 | >0
20 | CS(=O)(=O)N1CCC(CNc2ncnc(N3CCOC[C@@H]3c3ccc(C(F)(F)F)cc3)c2F)C1 (stereo partly drawn) [Example 327, 5-fluoro-N-[(1-methylsulfonylpyrrolidin-3-yl)methyl]-6-[(3S)-3-[4-(trifluoromethyl)phenyl]morpholin-4-yl]pyrimidin-4-amine] | >80 | < 1000 | >20
21 | Fc1c(NCc2ccc(N3CCOCC3)cc2)ncnc1N1CCCC1c1ccc(C(F)(F)F)cc1 (centres unmarked) [Example 56, 5-fluoro-N-[(4-morpholinophenyl)methyl]-6-[2-[4-(trifluoromethyl)phenyl]pyrrolidin-1-yl]pyrimidin-4-amine] | >20 | < 2000 | –
22 | O=S(=O)(NC1CC1)c1ccc(CNc2ncnc(N3CCOCC3c3ccccc3)c2F)cc1 (centres unmarked) [Example 273, N-cyclopropyl-4-[[[5-fluoro-6-(3-phenylmorpholin-4-yl)pyrimidin-4-yl]amino]methyl] benzenesulfonamide] | >80 | < 500 | >20
23 | COc1ccnc(CNc2ncnc(N3CCCC3c3ccc(C(F)(F)F)cc3)c2F)c1 (centres unmarked) [Example 131, 5-fluoro-N-[(4-methoxy-2-pyridyl)methyl]-6-[2-[4-(trifluoromethyl)phenyl]pyrrolidin-1-yl]pyrimidin-4-amine] | – | < 2000 | >20
